From patent EP0258006A2, “Monoclonal antibodies reactive with chlorinated dibenzo-p-dioxins and method of preparing and using same” (WE[…] CORPORATION, priority 1986, dated 1988)

Experiments:
[1] = tested on: monoclonal antibodies reactive with 2,3,7,8-TCDD in hybridoma culture supernatants (the 6 of 384 cultures positive by CIEIA); test: competitive inhibition enzyme immunoassay (CIEIA) of hybridoma culture supernatants; type: binding, BALB/c mice; details: culture supernatants preincubated with 1.0 × 10⁻⁴ M 2,3,7,8-TCDD; plates coated with BSA-adipamidoyl,3,7,8-trichlorodibenzo-p-dioxin conjugate; 6 positive cultures; 100 µM
[2] = tested on: ATCC HB 9183 antibody (monoclonal antibody, IgG1, produced by hybridoma ATCC HB 9183); test: competitive inhibition enzyme immunoassay (CIEIA) with ATCC HB 9183 culture supernatant; type: binding, BALB/c mice; details: 1:5 dilution of culture supernatant preincubated 1 hour at room temperature with various concentrations of TCDD; linear curve in Figure 3

SMILES: Clc1cc2c(cc1Cl)Oc1cc(Cl)c(Cl)cc1O2 [2,3,7,8-TCDD, 2,3,7,8-tetrachlorodibenzo-p-dioxin]
- inhibition of antibody binding to the solid phase-bound conjugate [1]: at least 50%
- binding of antibody to free TCDD (CIEIA, Figure 3) [2]: binds directly to free TCDD
